Reference: ChEMBL document CHEMBL3272224, “Synthesis and hypotensive activity of N-alkyl-N"-cyano-N'-pyridylguanidines” (J Med Chem, 1978)

Tests used:
[1] = Toxicity in po dosed mouse assessed as mortality after 7 days; conditions: in vivo
Rattus norvegicus = assay: Hypotensive activity in po dosed spontaneously hypertensive Wistar-Okamoto rat assessed as dose required to cause 30 mmHg fall of blood pressure administered for 5 days; type: functional; conditions: 120 h, read-out: MED

Row | Structure (SMILES) | LD50 at 168 h [1] | minimal effective dose (Rattus norvegicus)
1 | CCC(C)(C)N/C(N)=N/C#N [GUANCYDINE] | 800 mg/kg | 15 mg/kg
2 | CCC(C)(C)/N=C(\NC#N)Nc1c(C)cc(C)nc1C | 800 mg/kg | > 25 mg/kg
3 | CCCC/N=C(\NC#N)Nc1cccnc1 | > 1000 mg/kg | 20 mg/kg
4 | CCCCC(CC)C/N=C(\NC#N)Nc1cccnc1 (stereo not given) | > 1000 mg/kg | > 50 mg/kg
5 | CCC(C)(C)N/C(=N\C#N)NCCCN(C)C | > 1000 mg/kg | 25 mg/kg
6 | CC(C)CC/N=C(\NC#N)Nc1cccnc1 | > 1000 mg/kg | 20 mg/kg
7 | CCC(C)(C)N/C(=N\c1ncccn1)Nc1cccnc1.Cl | 1000 mg/kg | > 35 mg/kg
8 | CC(C)(C)C(C)(C)/N=C(\NC#N)Nc1cccnc1 | > 1000 mg/kg | 50 mg/kg
9 | CCC(C)(C)N/C(=N\c1cnccn1)Nc1cccnc1 | 800 mg/kg | 25 mg/kg
10 | CC1(/N=C(\NC#N)Nc2cccnc2)CCC1 | > 1000 mg/kg | 50 mg/kg
11 | CCC(CC)(CC)/N=C(\NC#N)Nc1cccnc1 | > 1000 mg/kg | 1 mg/kg
12 | C=C(C)C/N=C(\NC#N)Nc1cccnc1 | 1000 mg/kg | 20 mg/kg
13 | CC(C)(C)/N=C(\NC#N)Nc1ccc(Cl)nc1Cl | > 1000 mg/kg | > 50 mg/kg
14 | CC(C)(C)N/C(=N\C#N)Nc1cnc2ccccc2c1 | > 1000 mg/kg | 20 mg/kg
15 | N#CN/C(=N\CCc1ccccc1)Nc1ccncc1 | > 1000 mg/kg | 20 mg/kg
16 | CC(C)(C)/N=C(\NC#N)Nc1cncc(Br)c1 | 600 mg/kg | 0.5 mg/kg
17 | CC(C)CC(C)/N=C(\NC#N)Nc1ccncc1 (stereo not given) | 1000 mg/kg | 35 mg/kg
18 | N#CNC(=N)Nc1cccnc1 | > 1000 mg/kg | 50 mg/kg
19 | CC(C)(C)N/C(=N\C#N)Nc1ccc(O)cc1 | > 1000 mg/kg | > 50 mg/kg
20 | CCC(C)(C)N/C(=N\S(=O)(=O)c1ccc(C)cc1)Nc1cccnc1 | > 1000 mg/kg | > 50 mg/kg
21 | N#CN/C(=N\C1CC1)Nc1cccnc1 | > 1000 mg/kg | 20 mg/kg
22 | N#CN/C(=N\Cc1ccccc1)Nc1cccnc1 | > 1000 mg/kg | 20 mg/kg
23 | N#CN/C(=N\CCc1ccccc1)Nc1cccnc1 | > 1000 mg/kg | 50 mg/kg
24 | CC(C)(C)N/C(=N\C#N)Nc1c(Cl)cccc1Cl | > 1000 mg/kg | > 50 mg/kg

Row | Structure (SMILES) | LD50 at 168 h [1] | minimal effective dose (Rattus norvegicus)
25 | CC(C)(C)CC(C)(C)/N=C(\NC#N)Nc1ccncc1 | > 1000 mg/kg | 50 mg/kg
26 | COc1ccc(/N=C(\NC#N)NC(C)(C)C)c(OC)n1 | > 1000 mg/kg | > 50 mg/kg
27 | CN(C)c1ccc(N/C(=N/C#N)NC(C)(C)C)cc1 | > 1000 mg/kg | > 50 mg/kg
28 | CCOc1ccccc1N/C(=N/C#N)NC(C)(C)CC | > 1000 mg/kg | 20 mg/kg
29 | CCC(C)(C)N/C(=N\C(=O)C(F)(F)F)Nc1cccnc1 | > 1000 mg/kg | > 50 mg/kg
30 | Cc1noc(C)c1N/C(=N/C#N)NC(C)C(C)(C)C (stereo not given) | > 1000 mg/kg | 20 mg/kg
31 | CCC(C)(C)N/C(=N\C#N)Nc1ccc(N(C)C)cc1 | > 1000 mg/kg | > 50 mg/kg
32 | N#CN/C(=N\c1cccnc1)N1CCCCC1 | > 1000 mg/kg | 20 mg/kg
33 | Cc1noc(C)c1N/C(=N/C#N)NC(C)(C)C | > 1000 mg/kg | 10 mg/kg
34 | CC(C)(C)/N=C(\NC#N)Nc1ccc(Cl)cn1 | 800 mg/kg | 25 mg/kg
35 | CCC(C)(C)N/C(=N\C#N)Nc1c(C)cccc1C | > 1000 mg/kg | 50 mg/kg
36 | CCC(CC)(CC)/N=C(\NC#N)Nc1ccncc1 | > 1000 mg/kg | 2.5 mg/kg
37 | CCCN(CCC)S(=O)(=O)/N=C(/Nc1cccnc1)NC(C)(C)CC | > 1000 mg/kg | > 50 mg/kg
38 | CC(C)(C)C(C)(C)/N=C(\NC#N)Nc1ccncc1 | > 1000 mg/kg | 20 mg/kg
39 | CC(C)(C)C/N=C(\NC#N)Nc1ccncc1 | 600 mg/kg | 5 mg/kg
40 | CC(C)CC(C)(C)/N=C(\NC#N)Nc1ccncc1 | > 1000 mg/kg | 20 mg/kg
41 | N#CN/C(=N\C1CCCC1)Nc1cccnc1 | 1000 mg/kg | 20 mg/kg
42 | CC(C)(C)/N=C(\NC#N)Nc1ccncc1 | > 1000 mg/kg | 2.5 mg/kg
43 | CC(C)(C)N/C(=N\C#N)NCCc1ccccn1 | 800 mg/kg | 25 mg/kg
44 | CC(C)C(/N=C(\NC#N)Nc1ccncc1)C(C)C | 250 mg/kg | 8 mg/kg
45 | CC(NC(=NC#N)Nc1ccccc1)C(C)(C)C (stereo not given) | > 1000 mg/kg | > 50 mg/kg
46 | CCC(C)(C)N/C(=N\C#N)NCc1ccncc1.O | > 1000 mg/kg | 20 mg/kg
47 | CC(C)(C)N/C(=N\C#N)NCc1ccccn1 | 600 mg/kg | > 20 mg/kg
48 | CC(C)(C)/N=C(\NC#N)Nc1cccnc1Cl | > 1000 mg/kg | 5 mg/kg

Row | Structure (SMILES) | LD50 at 168 h [1] | minimal effective dose (Rattus norvegicus)
49 | CCC(C)(C)/N=C(\NC#N)Nc1ccncc1 | 600 mg/kg | 2.5 mg/kg
50 | Cc1cc(C)nc(N/C(=N/C(C)(C)C)NC#N)c1 | > 1000 mg/kg | > 50 mg/kg
51 | CCC(C)(C)N/C(=N\C#N)Nc1ccc(OC)cc1 | > 1000 mg/kg | 50 mg/kg
52 | CCC(C)(C)N/C(=N\O)Nc1cccnc1 | 600 mg/kg | > 20 mg/kg
53 | CC(C)(C)N/C(=N\C#N)NCc1cccnc1 | > 1000 mg/kg | 2.5 mg/kg
54 | CC(N/C(=N\C#N)NCc1ccncc1)C(C)(C)C (stereo not given) | > 1000 mg/kg | 20 mg/kg
55 | CC(C)(C)N/C(=N\O)Nc1cccnc1 | 1000 mg/kg | > 35 mg/kg
56 | CCC(CC)N/C(=N\O)Nc1cccnc1 | > 1000 mg/kg | 50 mg/kg
57 | N#CN/C(=N\C1CCCCC1)Nc1ccccn1 | 1000 mg/kg | > 35 mg/kg
58 | N#C/N=C(/Nc1ccncc1)NC12CC3CC(CC(C3)C1)C2 | > 1000 mg/kg | 5 mg/kg
59 | N#CN/C(=N\C1CCCCC1)Nc1ccncc1 | 600 mg/kg | 20 mg/kg
60 | CN1CCN(/C(=N/C#N)NC(C)(C)C)CC1 | > 1000 mg/kg | > 50 mg/kg
61 | CC(C)CC(C)(C)/N=C(\NC#N)Nc1cccnc1 | > 1000 mg/kg | 2.5 mg/kg
62 | CC(C)(C)CC(C)(C)/N=C(\NC#N)Nc1cccnc1 | > 1000 mg/kg | 50 mg/kg
63 | CCC/N=C(\NC#N)Nc1cccnc1 | > 1000 mg/kg | 20 mg/kg
64 | CCC(C)(C)N/C(=N\C(N)=O)Nc1cccnc1 | > 1000 mg/kg | > 50 mg/kg
65 | CC(/N=C(\NC#N)Nc1ccncc1)c1ccccc1 (stereo not given) | 600 mg/kg | 10 mg/kg
66 | CC(C)CCCC(C)N/C(=N\C#N)Nc1ccncc1 (stereo not given) | > 1000 mg/kg | 50 mg/kg
67 | N#CN/C(=N\Cc1ccco1)Nc1cccnc1 | > 1000 mg/kg | 20 mg/kg
68 | CCOCC/N=C(\NC#N)Nc1cccnc1 | 600 mg/kg | > 20 mg/kg
69 | N#CN/C(=N\c1ccccc1)Nc1ccncc1 | > 1000 mg/kg | 50 mg/kg
70 | CCC(C)(C)N/C(=N\C=O)Nc1cccnc1 | 600 mg/kg | > 20 mg/kg
71 | N#CN/C(=N\C(C1CC1)C1CC1)Nc1ccncc1 | 600 mg/kg | 10 mg/kg
72 | CC(C)C(C)(C)/N=C(\NC#N)Nc1cccnc1 | > 1000 mg/kg | 1 mg/kg

Row | Structure (SMILES) | LD50 at 168 h [1] | minimal effective dose (Rattus norvegicus)
73 | CO/N=C(/Nc1cccnc1)NC(C)(C)C | > 1000 mg/kg | 50 mg/kg
74 | CC(C)(C)C/N=C(/NC#N)Nc1cccnc1 | > 1000 mg/kg | 2.5 mg/kg
75 | CCC(C)(C)N/C(=N\C#N)Nc1ccc[n+]([O-])c1 | > 1000 mg/kg | 20 mg/kg
76 | N#CN/C(=N\CC1CCCO1)Nc1cccnc1 (stereo not given) | > 1000 mg/kg | 50 mg/kg
77 | N#CN/C(=N\Cc1ccccc1)Nc1ccncc1 | 600 mg/kg | 5 mg/kg
78 | CCn1nc(C)cc1N/C(=N/C#N)NC(C)(C)C | > 1000 mg/kg | 10 mg/kg
79 | CC(/N=C(/NC#N)Nc1cccnc1)C(C)(C)C (stereo not given) | 1000 mg/kg | 1 mg/kg
80 | Cc1nn(C)c(N/C(=N/C#N)NC(C)(C)C)c1Cl | > 1000 mg/kg | 20 mg/kg
81 | CCC(C)/N=C(\NC#N)Nc1cccnc1 (stereo not given) | > 1000 mg/kg | 20 mg/kg
82 | Cc1cccc(C)c1N/C(=N/C#N)NC(C)(C)C | > 1000 mg/kg | > 50 mg/kg
83 | N#CN/C(=N\C1CCCCC1)Nc1cccnc1 | > 1000 mg/kg | 20 mg/kg
84 | CCC(C)(CC)/N=C(\NC#N)Nc1cccnc1 | > 1000 mg/kg | 0.5 mg/kg
85 | CCCCC/N=C(\NC#N)Nc1cccnc1 | > 1000 mg/kg | 20 mg/kg
86 | CCCCCCC/N=C(\NC#N)Nc1cccnc1 | > 1000 mg/kg | > 50 mg/kg
87 | CCC(C)(C)N/C(=N\C#N)Nc1ccc[n+](C)c1.[I-] | > 1000 mg/kg | 20 mg/kg
88 | CC(C)C(/N=C(\NC#N)Nc1cccnc1)C(C)C | > 1000 mg/kg | 5 mg/kg
89 | CCC(C)(C)N/C(=N\C#N)Nc1cc(-c2ccc(Cl)cc2)nn1C | > 1000 mg/kg | 50 mg/kg
90 | CC(C)C(C)(C)/N=C(\NC#N)Nc1ccncc1 | 1000 mg/kg | 20 mg/kg
91 | N#CN/C(=N\c1ccccc1)Nc1cccnc1 | > 1000 mg/kg | 5 mg/kg
92 | CCCC(C)(C)/N=C(\NC#N)Nc1cccnc1 | > 1000 mg/kg | 1 mg/kg
93 | CCC(C)(C)N/C(=N\C#N)Nc1ccccc1 | > 1000 mg/kg | 50 mg/kg
94 | C/N=C(\NC#N)Nc1cccnc1 | > 1000 mg/kg | > 50 mg/kg
95 | CCC(/N=C(\NC#N)Nc1ccncc1)C(C)C (stereo not given) | 600 mg/kg | 5 mg/kg
